Assay results as given in US20260102340A1, “Therapeutic Formulation” (1000739373 Ontario Ltd., priority 2022, published 2026).
“And” between values parts separate entries of the source, which are not always exact repeats. Equal entries are not always repeated.

What was measured:
Format in all cases: physicochemical
[1] = Visual solubility of formulations packaged in glass bottles; settings: for Visual solubility in glass bottles: 100 μg/50 μl in 12% w/w ethanol and HFA 134a; for Visual appearance in glass bottles: 5° C.
[2] = Quantitative solubility of melatonin in ethanol/HFA 152a (filtered supersaturated solutions, HPLC)
Description: Data was obtained at 5° C. (see FIG. 15 and FIG. 16) and T=20° C. (see FIG. 17 and FIG. 18) and presented as % w/w, μg/50 μl and μg/63 μl (see also Table 4).

[3] = Melatonin drug residual (total can content) after storage at 40° C. and 75% relative humidity; settings: for Initial Melatonin t = 0 (can content) / Initial Melatonin t = 0, mean: 100 μg/50 μL
Description: Drug residual measurements (total can content) was determined following storage at 40° C. and 75% relative humidity.
Each canister type was packaged with metering valve 1908 (Aptar™, 50 μl) (MDI batches OZ211003/RJ/A and OZ211003/RJ/C) and metering valves 1904 (Bespak™ 50 μl, with dip tube 1906) (MDI batches OZ211003/RJ/B and OZ211003/RJ/D).

[4] = 6% w/w ethanol, HFA 152a, Plain Aluminum 14 ml canister, Metering Valve 1904 (with dip tube 1906)
[5] = 6% w/w ethanol, HFA 152a, Plain Aluminum 14 ml canister, Metering Valve 1908
[6] = 6% w/w ethanol, HFA 152a, Plasma Coated 14 ml canister, Metering Valve 1904 (with dip tube 1906)
[7] = 6% w/w ethanol, HFA 152a, Plasma coated 14 ml canister, Metering Valve 1908
[8] = Plain Aluminum canister, Metering Valve 1904 (with dip tube 1906), t = 1 month @ 40° C./75% RH, stored Inverted
[9] = Plain Aluminum canister, Metering Valve 1904 (with dip tube 1906), t = 1 month @ 40° C./75% RH, stored Upright
[10] = Plain Aluminum canister, Metering Valve 1904 (with dip tube 1906), t = 3 month @ 40° C./75% RH, stored Inverted (valve down)
[11] = Plain Aluminum canister, Metering Valve 1904 (with dip tube 1906), t = 3 month @ 40° C./75% RH, stored Upright (valve up)
[12] = Plain Aluminum canister, Metering Valve 1908, t = 1 month @ 40° C./75% RH, stored Inverted
[13] = Plain Aluminum canister, Metering Valve 1908, t = 1 month @ 40° C./75% RH, stored Upright
[14] = Plain Aluminum canister, Metering Valve 1908, t = 3 month @ 40° C./75% RH, stored Inverted (valve down)
[15] = Plain Aluminum canister, Metering Valve 1908, t = 3 month @ 40° C./75% RH, stored Upright (valve up)
[16] = Plasma Coated canister, Metering Valve 1904 (with dip tube 1906), t = 1 month @ 40° C./75% RH, stored Inverted
[17] = Plasma Coated canister, Metering Valve 1904 (with dip tube 1906), t = 1 month @ 40° C./75% RH, stored Upright
[18] = Plasma Coated canister, Metering Valve 1904 (with dip tube 1906), t = 3 month @ 40° C./75% RH, stored Inverted (valve down)
[19] = Plasma Coated canister, Metering Valve 1904 (with dip tube 1906), t = 3 month @ 40° C./75% RH, stored Upright (valve up)
[20] = Plasma coated canister, Metering Valve 1908, t = 1 month @ 40° C./75% RH, stored Inverted
[21] = Plasma coated canister, Metering Valve 1908, t = 1 month @ 40° C./75% RH, stored Upright
[22] = Plasma coated canister, Metering Valve 1908, t = 3 month @ 40° C./75% RH, stored Inverted (valve down)
[23] = Plasma coated canister, Metering Valve 1908, t = 3 month @ 40° C./75% RH, stored Upright (valve up)

In the case of `CCCC1O[C@@H]2C[C@H]3[C@@H]4CCC5=CC(=O)C=C[C@]5(C)[C@H]4[C@@H](O)C[C@]3(C)[C@]2(C(=O)CO)O1` (stereo partly shown) [Budesonide], the “Visual solubility in glass bottles” value ([1]; T=5° C. and T=20° C.) is reported as “confirmed visually”.

With `COc1ccc2[nH]cc(CCNC(C)=O)c2c1` [Melatonin] the “*Melatonin μg per 56 mg (63 μl)” value ([2]; 0% w/w ethanol, T = 5° C.) was 8 μg per 56 mg (63 μl), the “Melatonin %(w/w) in filtered supersaturated HFA152a solution” value (shortened to “Melatonin %(w/w)”) ([2]; 0% w/w ethanol, T = 5° C.) was 0.01 %(w/w) and the “Melatonin μg per 44 mg (50 μl)” value ([2]; 0% w/w ethanol, T = 5° C.) was 6 μg per 44 mg (50 μl). For the same compound, the “*Melatonin μg per 56 mg (63 μl)” value ([2]; 0% w/w ethanol, T = 20° C.) was 9 μg per 56 mg (63 μl), the “Melatonin %(w/w)” value ([2]; 0% w/w ethanol, T = 20° C.) was 0.02 %(w/w) and the “Melatonin μg per 44 mg (50 μl)” value ([2]; 0% w/w ethanol, T = 20° C.) was 7 μg per 44 mg (50 μl). For the same compound, the “*Melatonin μg per 56 mg (63 μl)” value ([2]; 5% w/w ethanol, T = 5° C.) was 121 μg per 56 mg (63 μl), the “Melatonin %(w/w)” value ([2]; 5% w/w ethanol, T = 5° C.) was 0.22 %(w/w) and the “Melatonin μg per 44 mg (50 μl)” value ([2]; 5% w/w ethanol, T = 5° C.) was 95 μg per 44 mg (50 μl). For the same compound, the “*Melatonin μg per 56 mg (63 μl)” value ([2]; 5% w/w ethanol, T = 20° C.) was 159 μg per 56 mg (63 μl), the “Melatonin %(w/w)” value ([2]; 5% w/w ethanol, T = 20° C.) was 0.28 %(w/w) and the “Melatonin μg per 44 mg (50 μl)” value ([2]; 5% w/w ethanol, T = 20° C.) was 125 μg per 44 mg (50 μl). For the same compound, the “*Melatonin μg per 56 mg (63 μl)” value ([2]; 8% w/w ethanol, T = 5° C.) was 270 μg per 56 mg (63 μl), the “Melatonin %(w/w)” value ([2]; 8% w/w ethanol, T = 5° C.) was 0.48 %(w/w) and the “Melatonin μg per 44 mg (50 μl)” value ([2]; 8% w/w ethanol, T = 5° C.) was 212 μg per 44 mg (50 μl). The “*Melatonin μg per 56 mg (63 μl)” value ([2]; 8% w/w ethanol, T = 20° C.) was 395 μg per 56 mg (63 μl), the “Melatonin %(w/w)” value ([2]; 8% w/w ethanol, T = 20° C.) was 0.70 %(w/w) and the “Melatonin μg per 44 mg (50 μl)” value ([2]; 8% w/w ethanol, T = 20° C.) was 310 μg per 44 mg (50 μl). For the same compound, the “*Melatonin μg per 56 mg (63 μl)” value ([2]; 10% w/w ethanol, T = 5° C.) was 339 μg per 56 mg (63 μl), the “Melatonin %(w/w)” value ([2]; 10% w/w ethanol, T = 5° C.) was 0.60 %(w/w) and the “Melatonin μg per 44 mg (50 μl)” value ([2]; 10% w/w ethanol, T = 5° C.) was 266 μg per 44 mg (50 μl). The “*Melatonin μg per 56 mg (63 μl)” value ([2]; 10% w/w ethanol, T = 20° C.) was 456 μg per 56 mg (63 μl), the “Melatonin %(w/w)” value ([2]; 10% w/w ethanol, T = 20° C.) was 0.82 %(w/w) and the “Melatonin μg per 44 mg (50 μl)” value ([2]; 10% w/w ethanol, T = 20° C.) was 359 μg per 44 mg (50 μl). For the same compound, the “*Melatonin μg per 56 mg (63 μl)” value ([2]; 15% w/w ethanol, T = 5° C.) was 588 μg per 56 mg (63 μl), the “Melatonin %(w/w)” value ([2]; 15% w/w ethanol, T = 5° C.) was 1.05 %(w/w) and the “Melatonin μg per 44 mg (50 μl)” value ([2]; 15% w/w ethanol, T = 5° C.) was 462 μg per 44 mg (50 μl). For the same compound, the “*Melatonin μg per 56 mg (63 μl)” value ([2]; 15% w/w ethanol, T = 20° C.) was 817 μg per 56 mg (63 μl), the “Melatonin %(w/w)” value ([2]; 15% w/w ethanol, T = 20° C.) was 1.46 %(w/w) and the “Melatonin μg per 44 mg (50 μl)” value ([2]; 15% w/w ethanol, T = 20° C.) was 642 μg per 44 mg (50 μl). The “Initial Melatonin t = 0 (can content)” value [3, 4] was 15408 µg and 15450 µg and 15897 µg, the “Initial Melatonin t = 0, mean” value [3, 4] was 15.6 mg and the “Initial Melatonin t = 0 (can content)” value [3, 5] was 16200 µg and 15676 µg and 15379 µg. For the same compound, the “Initial Melatonin t = 0, mean” value [3, 5] was 15.8 mg, the “Initial Melatonin t = 0 (can content)” value [3, 6] was 15417 µg and 15682 µg and 15292 µg and the “Initial Melatonin t = 0, mean” value [3, 6] was 15.5 mg. The “Initial Melatonin t = 0 (can content)” value [3, 7] was 15430 µg and 15517 µg and 15810 µg, the “Initial Melatonin t = 0, mean” value [3, 7] was 15.6 mg and the “Residual melatonin at 3-month” value ([3]; MDIs stored valve down) was 93% to 96. The “Residual Melatonin” value [3, 8] was 15162 µg and 14967 µg, the “Residual Melatonin % of t = 0” value [3, 8] was 97 % of t = 0 and the “Residual Melatonin” value [3, 9] was 14959 µg and 15331 µg. The “Residual Melatonin % of t = 0” value [3, 9] was 97 % of t = 0, the “Residual Melatonin” value [3, 10] was 14652 µg and 14318 µg and the “Residual Melatonin % of t = 0” value [3, 10] was 93 % of t = 0. The “Residual Melatonin” value [3, 11] was 14721 µg and 14847 µg, the “Residual Melatonin % of t = 0” value [3, 11] was 98 % of t = 0 and the “Residual Melatonin” value [3, 12] was 15171 µg and 15131 µg. The “Residual Melatonin % of t = 0” value [3, 12] was 98 % of t = 0, the “Residual Melatonin” value [3, 13] was 15403 µg and 15581 µg and the “Residual Melatonin % of t = 0” value [3, 13] was 100 % of t = 0. The “Residual Melatonin” value [3, 14] was 14920 µg and 14914 µg, the “Residual Melatonin % of t = 0” value [3, 14] was 96 % of t = 0 and the “Residual Melatonin” value [3, 15] was 15600 µg and 15422 µg. The “Residual Melatonin % of t = 0” value [3, 15] was 100 % of t = 0, the “Residual Melatonin” value [3, 16] was 14872 µg and 14984 µg and the “Residual Melatonin % of t = 0” value [3, 16] was 97 % of t = 0. For the same compound, the “Residual Melatonin” value [3, 17] was 14944 µg and 15211 µg, the “Residual Melatonin % of t = 0” value [3, 17] was 98 % of t = 0 and the “Residual Melatonin” value [3, 18] was 14634 µg and 14510 µg. The “Residual Melatonin % of t = 0” value [3, 18] was 94 % of t = 0, the “Residual Melatonin” value [3, 19] was 14805 µg and 14789 µg and the “Residual Melatonin % of t = 0” value [3, 19] was 98 % of t = 0. For the same compound, the “Residual Melatonin” value [3, 20] was 15024 µg and 14980 µg, the “Residual Melatonin % of t = 0” value [3, 20] was 96 % of t = 0 and the “Residual Melatonin” value [3, 21] was 15578 µg and 15444 µg. The “Residual Melatonin % of t = 0” value [3, 21] was 100 % of t = 0, the “Residual Melatonin” value [3, 22] was 14661 µg and 14791 µg and the “Residual Melatonin % of t = 0” value [3, 22] was 94 % of t = 0. The “Residual Melatonin” value [3, 23] was 15461 µg and 15469 µg, the “Residual Melatonin % of t = 0” value [3, 23] was 100 % of t = 0 and the “Residual melatonin at 1-month” value ([3]; all packaging and storage conditions, 40° C./75% RH) was 96-98%. The “Residual melatonin at 3-month” value ([3]; stored valve up, both canister types, metering valve 1904 (Bespak with dip tube 1906)) was 98%, the “Residual melatonin at 3-month” value ([3]; stored valve up, both canister types, metering valve 1908 (Aptar)) was 100% and the “Initial time point residual, % of the target formulation” value ([3]; t = 0, 100 μg/50 μl, 6% w/w ethanol, HFA 152a) was 97.5±1.7%. For the same compound, the Visual solubility ([1]; 50 μg/50 μl in 5% ethanol and HFA 134a, T=5° C. and T=20° C.) was “confirmed visually”, the Visual solubility ([1]; 100 μg/50 μl (5% w/w ethanol), HFA 152a, 4° C. and 20° C.) was “soluble” and the “Visual solubility in glass bottles” value ([1]; T=5° C. and T=20° C.) was “confirmed visually”. The “Visual appearance in glass bottles” value ([1]; 100 μg/50 μl, 6% w/w ethanol in HFA 152a) was “clear solutions”, the “Visual appearance in glass bottles” value ([1]; 200 μg/50 μl, 8% w/w ethanol in HFA 152a) was “clear solutions” and the Visual solubility ([1]; 500 μg/50 μl (15% w/w ethanol), HFA 152a, 4° C. and 20° C.) was “soluble”.
